{"source": "patent US20240409536A1", "about": "“COMPOUNDS AND METHODS FOR MODULATING SPLICING” (REMIX THERAPEUTICS INC., priority 2021, published 2024)", "key": {"[1]": {"system": "SMN2 mRNA", "assay": "Gene panel canonical junction qPCR assay, SMN2 CJ mRNA decrease", "type": "cell-based, human", "details": "Homo sapiens, decrease in CJ mRNA levels, read-out: SMN2 IC50", "method": "(§1) Compounds described herein were used to modulate RNA transcript abundance in cells. The expression of a target mRNA was measured by detecting the formation of an exon-exon junction in the canonical transcript (CJ). A compound mediated exon-inclusion event was detected by observing an increase in formation of a new junction with an alternative exon (AJ). Real-time qPCR assays were used to detect these splicing switches and interrogate the potency of various compounds towards different target genes. A high-throughput real time quantitative PCR (RT-qPCR) assay was developed to measure these two isoforms of the mRNA (CJ and AJ) for exemplary genes, such as HTT, SMN2, and MYB, together with a control housekeeping gene, GAPDH or GUSB or PPIA, used for normalization. Briefly, the A673 or K562 cell line was treated with various compounds described herein (e.g., compounds of Formula (I), (I), or (III)). After treatment, the levels of the HTT, MYB, or SMN2 mRNA targets were determined from each sample of cell lysate by cDNA synthesis followed by qPCR.\n(§2) The data analysis was performed by first determining the ΔCt vs the housekeeper gene. This ΔCt was then normalized against the DMSO control (ΔΔCt) and converted to RQ (relative quantification) using the 2^(−ΔΔCt) equation. The RQ were then converted to a percentage response by arbitrarily setting an assay window of 3.5 and 4.0 ΔCt for HTT-CJ and MYB-CJ respectively and an assay window of 9 and 3 ΔCt for HTT-AJ and MYB-AJ in 96 well format (50,000 K562 cells/well and 15,000 A673 cells per well) and an assay window of 3 and 4 ΔCt for HTT-CJ and MYB-CJ respectively and an assay window of 5 and 3 ΔCt for HTT-AJ and MYB-AJ respectively in 384 well format (8,000 K562 cells/well example). […] The percentage response was then fitted to the 4 parametric logistic equation to evaluate the concentration dependence of compound treatment. The increase in AJ mRNA is reported as AC50 (compound concentration having […] in AJ increase) while the decrease in CJ mRNA levels is reported as IC50 (compound concentration having 50) response in CJ decrease).\n(§3) Additional studies were carried out for a larger panel of genes using the protocol provided above. The junction between flanking upstream and downstream exons was used to design canonical junction qPCR assays. At least one of the forward primer, reverse primer or the CY5-labeled 5′ nuclease probe (with 3′ quencher such as ZEN/Iowa Black FQ) was designed to overlap with the exon junction to capture the CJ mRNA transcript. BLAST was used to confirm the specificity of the probeset and parameters such as melting temperature, GC content, amplicon size, and primer dimer formation are considered during their design. Data for the decrease in CJ mRNA levels for four exemplary genes (HTT, SMN2, MYB, and Target C) analyzed in this panel are reported as IC50 (compound concentration having […] in CJ decrease).\n(§4) A summary of the results from the panel is illustrated in Tables 5A and 51B, wherein “A” represents an IC50 of less than 100 nM; “B” represents an IC50 of between 100 nM and 1 μM; and “C” represents an IC50 of between 1 μM and 10 μM; and “D” represents an IC50 of greater than 10 μM."}, "[2]": {"system": "Target C mRNA", "assay": "Gene panel canonical junction qPCR assay, Target C CJ mRNA decrease", "type": "cell-based", "details": "Homo sapiens, decrease in CJ mRNA levels, read-out: Target C IC50", "method": "as §1, §2, §3, §4"}, "[3]": {"system": "HTT mRNA", "assay": "Gene panel canonical junction qPCR assay, HTT CJ mRNA decrease", "type": "cell-based, human", "details": "Homo sapiens, decrease in CJ mRNA levels, read-out: HTT IC50", "method": "as §1, §2, §3, §4"}, "[4]": {"system": "MYB mRNA", "assay": "Gene panel canonical junction qPCR assay, MYB CJ mRNA decrease", "type": "cell-based, human", "details": "Homo sapiens, decrease in CJ mRNA levels, read-out: MYB IC50", "method": "as §1, §2, §3, §4"}}, "data": [{"smiles": "CC1CC(c2cc(F)c(C(=O)Nc3ccc4cn(C)nc4c3)s2)CCN1", "note": "(centres unmarked) [Compound 624]", "values": [{"measurement": "IC50", "setting": "[1]", "result": "> 10", "unit": "µM"}, {"measurement": "IC50", "setting": "[2]", "result": "1 to 10", "unit": "µM"}, {"measurement": "IC50", "setting": "[3]", "result": "> 10", "unit": "µM"}, {"measurement": "IC50", "setting": "[4]", "result": "0.1 to 1", "unit": "µM"}]}, {"smiles": "CC1CC(c2cc(F)c(C(=O)Nc3cc(F)c4cn(C)nc4c3)s2)CCN1", "note": "(centres unmarked) [Compound 625]", "values": [{"measurement": "IC50", "setting": "[1]", "result": "1 to 10", "unit": "µM"}, {"measurement": "IC50", "setting": "[2]", "result": "1 to 10", "unit": "µM"}, {"measurement": "IC50", "setting": "[3]", "result": "1 to 10", "unit": "µM"}, {"measurement": "IC50", "setting": "[4]", "result": "1 to 10", "unit": "µM"}]}, {"smiles": "Cc1nc2c(F)cc(NC(=O)c3sc(N4CCNC(C)C4)cc3F)cc2o1", "note": "(centres unmarked) [Compound 637]", "values": [{"measurement": "IC50", "setting": "[1]", "result": "> 10", "unit": "µM"}, {"measurement": "IC50", "setting": "[2]", "result": "> 10", "unit": "µM"}, {"measurement": "IC50", "setting": "[3]", "result": "> 10", "unit": "µM"}, {"measurement": "IC50", "setting": "[4]", "result": "> 10", "unit": "µM"}]}, {"smiles": "Cc1cn2cc(NC(=O)c3sc(N4CCNC(C)C4)cc3F)c(C)cc2n1", "note": "(centres unmarked) [Compound 639]", "values": [{"measurement": "IC50", "setting": "[1]", "result": "0.1 to 1", "unit": "µM"}, {"measurement": "IC50", "setting": "[2]", "result": "1 to 10", "unit": "µM"}, {"measurement": "IC50", "setting": "[3]", "result": "1 to 10", "unit": "µM"}, {"measurement": "IC50", "setting": "[4]", "result": "0.1 to 1", "unit": "µM"}]}, {"smiles": "Cc1cn2cc(NC(=O)c3sc(N4CCNC(C)C4)cc3F)ncc2n1", "note": "(centres unmarked) [Compound 640]", "values": [{"measurement": "IC50", "setting": "[1]", "result": "0.1 to 1", "unit": "µM"}, {"measurement": "IC50", "setting": "[2]", "result": "1 to 10", "unit": "µM"}, {"measurement": "IC50", "setting": "[3]", "result": "> 10", "unit": "µM"}, {"measurement": "IC50", "setting": "[4]", "result": "0.1 to 1", "unit": "µM"}]}, {"smiles": "Cc1cn2cc(NC(=O)c3sc(N4CCNC(C)C4)cc3F)nc2c(C)n1", "note": "(centres unmarked) [Compound 641]", "values": [{"measurement": "IC50", "setting": "[1]", "result": "> 10", "unit": "µM"}, {"measurement": "IC50", "setting": "[2]", "result": "> 10", "unit": "µM"}, {"measurement": "IC50", "setting": "[3]", "result": "> 10", "unit": "µM"}, {"measurement": "IC50", "setting": "[4]", "result": "1 to 10", "unit": "µM"}]}, {"smiles": "Cc1cn2nc(NC(=O)c3sc(N4CCNC(C)C4)cc3F)nc2c(C)n1", "note": "(centres unmarked) [Compound 642]", "values": [{"measurement": "IC50", "setting": "[1]", "result": "> 10", "unit": "µM"}, {"measurement": "IC50", "setting": "[2]", "result": "> 10", "unit": "µM"}, {"measurement": "IC50", "setting": "[3]", "result": "> 10", "unit": "µM"}, {"measurement": "IC50", "setting": "[4]", "result": "0.1 to 1", "unit": "µM"}]}, {"smiles": "Cc1cn2nc(NC(=O)c3sc(N4CCNC(C)C4)cc3F)cc2c(C)n1", "note": "(centres unmarked) [Compound 643]", "values": [{"measurement": "IC50", "setting": "[1]", "result": "> 10", "unit": "µM"}, {"measurement": "IC50", "setting": "[2]", "result": "> 10", "unit": "µM"}, {"measurement": "IC50", "setting": "[3]", "result": "> 10", "unit": "µM"}, {"measurement": "IC50", "setting": "[4]", "result": "> 10", "unit": "µM"}]}, {"smiles": "Cc1cn2cc(NC(=O)c3ccc(C4CCNCC4)s3)cc(F)c2n1", "note": "[Compound 647]", "values": [{"measurement": "IC50", "setting": "[1]", "result": "> 10", "unit": "µM"}, {"measurement": "IC50", "setting": "[2]", "result": "> 10", "unit": "µM"}, {"measurement": "IC50", "setting": "[3]", "result": "> 10", "unit": "µM"}, {"measurement": "IC50", "setting": "[4]", "result": "1 to 10", "unit": "µM"}]}, {"smiles": "Cc1cn2cc(NC(=O)c3sc(C4CCNCC4)c(Cl)c3Cl)cc(F)c2n1", "note": "[Compound 648]", "values": [{"measurement": "IC50", "setting": "[1]", "result": "> 10", "unit": "µM"}, {"measurement": "IC50", "setting": "[2]", "result": "> 10", "unit": "µM"}, {"measurement": "IC50", "setting": "[3]", "result": "> 10", "unit": "µM"}, {"measurement": "IC50", "setting": "[4]", "result": "> 10", "unit": "µM"}]}, {"smiles": "CC1=NC2C(F)=CC(NC(=O)c3sc(C4CCNCC4)cc3F)=CC2O1", "note": "(centres unmarked) [Compound 657]", "values": [{"measurement": "IC50", "setting": "[1]", "result": "> 10", "unit": "µM"}, {"measurement": "IC50", "setting": "[2]", "result": "> 10", "unit": "µM"}, {"measurement": "IC50", "setting": "[3]", "result": "> 10", "unit": "µM"}, {"measurement": "IC50", "setting": "[4]", "result": "> 10", "unit": "µM"}]}, {"smiles": "CC1=NC2C(F)=CC(NC(=O)c3sc(C4CCNCC4)cc3F)=CC2S1", "note": "(centres unmarked) [Compound 658]", "values": [{"measurement": "IC50", "setting": "[1]", "result": "> 10", "unit": "µM"}, {"measurement": "IC50", "setting": "[2]", "result": "> 10", "unit": "µM"}, {"measurement": "IC50", "setting": "[3]", "result": "> 10", "unit": "µM"}, {"measurement": "IC50", "setting": "[4]", "result": "> 10", "unit": "µM"}]}, {"smiles": "Cc1cn2cc(NC(=O)c3sc(N4CCNC(C)C4)c(Cl)c3Cl)cc(F)c2n1", "note": "(centres unmarked) [Compound 659]", "values": [{"measurement": "IC50", "setting": "[1]", "result": "1 to 10", "unit": "µM"}, {"measurement": "IC50", "setting": "[2]", "result": "1 to 10", "unit": "µM"}, {"measurement": "IC50", "setting": "[3]", "result": "0.1 to 1", "unit": "µM"}, {"measurement": "IC50", "setting": "[4]", "result": "0.1 to 1", "unit": "µM"}]}, {"smiles": "Cc1cn2cc(NC(=O)c3cc(Cl)c(N4CCNC(C)C4)s3)cc(F)c2n1", "note": "(centres unmarked) [Compound 660]", "values": [{"measurement": "IC50", "setting": "[1]", "result": "1 to 10", "unit": "µM"}, {"measurement": "IC50", "setting": "[2]", "result": "1 to 10", "unit": "µM"}, {"measurement": "IC50", "setting": "[3]", "result": "0.1 to 1", "unit": "µM"}, {"measurement": "IC50", "setting": "[4]", "result": "< 0.1", "unit": "µM"}]}, {"smiles": "COc1cc(N2CCNCC2=O)sc1C(=O)Nc1cc(F)c2nc(C)cn2c1", "note": "[Compound 662]", "values": [{"measurement": "IC50", "setting": "[1]", "result": "> 10", "unit": "µM"}, {"measurement": "IC50", "setting": "[2]", "result": "> 10", "unit": "µM"}, {"measurement": "IC50", "setting": "[3]", "result": "> 10", "unit": "µM"}, {"measurement": "IC50", "setting": "[4]", "result": "> 10", "unit": "µM"}]}, {"smiles": "Cc1cn2cc(NC(=O)c3sc(C4CCNCC4)cc3Cl)cc(F)c2n1", "note": "[Compound 663]", "values": [{"measurement": "IC50", "setting": "[1]", "result": "> 10", "unit": "µM"}, {"measurement": "IC50", "setting": "[2]", "result": "1 to 10", "unit": "µM"}, {"measurement": "IC50", "setting": "[3]", "result": "0.1 to 1", "unit": "µM"}, {"measurement": "IC50", "setting": "[4]", "result": "0.1 to 1", "unit": "µM"}]}, {"smiles": "Cc1cn2nc(NC(=O)c3sc(C4CCNCC4)cc3F)nc2c(C)n1", "note": "[Compound 665]", "values": [{"measurement": "IC50", "setting": "[1]", "result": "1 to 10", "unit": "µM"}, {"measurement": "IC50", "setting": "[2]", "result": "0.1 to 1", "unit": "µM"}, {"measurement": "IC50", "setting": "[3]", "result": "< 0.1", "unit": "µM"}, {"measurement": "IC50", "setting": "[4]", "result": "< 0.1", "unit": "µM"}]}]}
